Work on `Br.CN1C(=NC2CCCCCC2)SCC1C(=O)Nc1ccc(Cl)cc1` (centres unmarked) yielded a melting point of 286.5 °C. Work on `CN1C(=NC2CCCCCC2)SCC1C(=O)Nc1ccc(Cl)cc1` (centres unmarked) [KHG24677, (2-cycloheptylimino-3-methyl-1,3-thiazolidine-4-yl)-N-(4-chlorophenyl)-carboxamide] yielded a melting point of 199.7 °C. Molecule `COc1ccc(CNC(=O)CC2CSC(=NC3CC3)N2C)cc1.Cl` (centres unmarked) has a melting point of 220.5 to 222 °C. Molecule `CC(C)(C)c1ccc(NC(=O)CC2CSC(=NC3CCCCC3)N2C2CCCCC2)cc1.Cl` (centres unmarked) has a melting point of 244 °C. For `CCCCc1ccc(NC(=O)C2CSC(=NC3CCCCCC3)N2C)cc1` (centres unmarked) [KHG24689, (2-cycloheptylimino-3-methyl-1,3-thiazolidine-4-yl)-N-(4-n-butylphenyl)-carboxamide], the melting point was 173.3 °C. With `Cl.O=C(CC1CSC(=NC2CCCCC2)N1Cc1ccccc1)Nc1cc(C(F)(F)F)cc(C(F)(F)F)c1` (centres unmarked) the melting point was 234.6 °C. With `CN1C(=NC2CCCCCC2)SCC1C(=O)Nc1ccc(Oc2ccccc2)cc1` (centres unmarked) [KHG24682, (2-cycloheptylimino-3-methyl-1,3-thiazolidine-4-yl)-N-(4-phenoxyphenyl)-carboxamide] the melting point was 278.6 °C. `COc1ccc(CNC(=O)CC2CSC(=NC3CCCC3)N2C)cc1.Cl` (centres unmarked) showed a melting point of 172 to 173.5 °C. `Cl.O=C(CC1CSC(=NC2CCCCC2)N1C1CCCCC1)NCc1ccc(Cl)cc1` (centres unmarked) gave a melting point of 152 °C. In the case of `Br.CCc1ccc(NC(=O)C2CSC(=NC3CCCCCC3)N2C)cc1` (centres unmarked), the melting point is reported as 278 to 279 °C. Molecule `CN1C(=NC2CC2)SCC1CC(=O)Nc1ccc(F)cc1.Cl` (centres unmarked) has a melting point of 252 to 253.5 °C. Work on `Cc1ccc(NC(=O)CC2CSC(=NC3CCCCC3)N2C2CCCCC2)cc1Cl.Cl` (centres unmarked) yielded a melting point of 173 °C. For `Br.CCCCc1ccc(NC(=O)C2CSC(=NC3CCCCCC3)N2C)cc1` (centres unmarked), the melting point was 240.8 °C. With `Br.CN1C(=NC2CCCCCC2)SCC1C(=O)Nc1cc([N+](=O)[O-])ccc1F` (centres unmarked) the melting point was 264.8 °C. Molecule `CN1C(=NC2CC2)SCC1CC(=O)Nc1cc(Cl)ccc1F.Cl` (centres unmarked) has a melting point of 233.5 to 234.5 °C. `Cl.O=C(CC1CSC(=NC2CCCCC2)N1C1CCCCC1)Nc1cc(Cl)ccc1F` (centres unmarked) showed a melting point of 158 °C. In the case of `CCCCc1ccc(NC(=O)CC2CSC(=NC3C4CC5CC(C4)CC3C5)N2C)cc1.Cl` (centres unmarked), the melting point is reported as 127 °C. With `Cc1ccc(NC(=O)CC2C(C)SC(=NC3CCCC3)N2C)cc1.Cl` (centres unmarked) the melting point was 228 to 229 °C. Work on `Cl.O=C(CC1CSC(=NC2CCCCC2)N1C1CCCCC1)Nc1cc(Cl)cc(Cl)c1` (centres unmarked) yielded a melting point of 202 °C. Molecule `CN1C(=NC2CCCCCC2)SCC1C(=O)Nc1ccc(C(C)(C)C)cc1` (centres unmarked) [KHG24684, (2-cycloheptylimino-3-methyl-1,3-thiazolidine-4-yl)-N-(4-t-butylphenyl)-carboxamide] has a melting point of 170.8 °C. `CCc1ccc(NC(=O)C2CSC(=NC3CCCCCC3)N2C)cc1` (centres unmarked) [KHG24664, (2-cycloheptylimino-3-methyl-1,3-thiazolidine-4-yl)-N-(4-ethylphenyl)-carboxamide] showed a melting point of 194 to 195 °C. `CCN1C(=NC2CCCCC2)SCC1CC(=O)Nc1ccc(Cl)cc1.Cl` (centres unmarked) showed a melting point of 218.3 °C. Molecule `CN1C(=NC2CCCCCC2)SCC1C(=O)Nc1ccc(F)cc1` (centres unmarked) [KHG24631, (2-cycloheptylimino-3-methyl-1,3-thiazolidine-4-yl)-N-(4-fluorophenyl)-carboxamide] has a melting point of 169.6 °C. `Cl.O=C(CC1CSC(=NC2CCCCC2)N1Cc1ccccc1)Nc1cc([N+](=O)[O-])ccc1F` (centres unmarked) gave a melting point of 166.4 °C. Molecule `CCCN1C(=NC2CCCCC2)SCC1CC(=O)Nc1cc(C(F)(F)F)cc(C(F)(F)F)c1.Cl` (centres unmarked) has a melting point of 243.4 °C. Work on `Cc1ccc(NC(=O)CC2CSC(=NC3CCCCC3)N2C2CC2)cc1.Cl` (centres unmarked) yielded a melting point of 216.4 °C. `CN1C(=NC2CCCCCC2)SCC1C(=O)Nc1cc(Cl)cc(Cl)c1` (centres unmarked) [KHG24674, (2-cycloheptylimino-3-methyl-1,3-thiazolidine-4-yl)-N-(3,5-dichlorophenyl)-carboxamide] gave a melting point of 191.2 °C. Molecule `Cc1ccc(NC(=O)CC2CSC(=NC3CC3)N2C)c(Cl)c1.Cl` (centres unmarked) has a melting point of 212 to 212.5 °C. For `CN1C(=NC2CC2)SCC1CC(=O)Nc1ccc(F)cc1Cl.Cl` (centres unmarked), the melting point was 237 to 239 °C. For `CN1C(=NC2CCCCCC2)SCC1C(=O)Nc1ccccc1.Cl` (centres unmarked), the melting point was 211.4 °C. For `CN1C(=NC2CC2)SCC1CC(=O)NCc1ccc(F)cc1.Cl` (centres unmarked), the melting point was 200.5 to 202.5 °C. Work on `CN1C(=NC2CCCCC2)SCC1CC(=O)NCc1ccccc1.Cl` (centres unmarked) yielded a melting point of 206 to 206.5 °C. `CC1SC(=NC2CCCC2)N(C)C1CC(=O)Nc1ccccc1F.Cl` (centres unmarked) showed a melting point of 153 °C. With `CN1C(=NC2CC2)SCC1CC(=O)Nc1cc([N+](=O)[O-])ccc1F.Cl` (centres unmarked) the melting point was 237.5 to 238 °C. In the case of `COc1ccc(NC(=O)CC2C(C)SC(=NC3CCCCCC3)N2C)cc1` (centres unmarked) [KHG24485, (2-cycloheptylimino-3,5-dimethyl-1,3-thiazolidine-4-yl)-N-(4-methoxyphenyl)-acetamide], the melting point is reported as 250 to 251 °C. In the case of `CN1C(=NC2CCCC2)SCC1CC(=O)Nc1ccccc1.Cl` (centres unmarked), the melting point is reported as 231.5 to 233 °C. For `CCCCN1C(=NC23CC4CC(CC(C4)C2)C3)SCC1CC(=O)Nc1ccc(Oc2ccccc2)cc1.Cl` (centres unmarked), the melting point was 127 °C. With `CCCCN1C(=NC23CC4CC(CC(C4)C2)C3)SCC1CC(=O)Nc1cc(Cl)cc(Cl)c1.Cl` (centres unmarked) the melting point was 164 °C. In the case of `Cc1ccc(NC(=O)CC2CSC(=NC3CCCC3)N2C)c(Cl)c1.Cl` (centres unmarked), the melting point is reported as 185 to 186.5 °C. For `CN1C(=NC2CC2)SCC1CC(=O)Nc1cc(Cl)cc(Cl)c1.Cl` (centres unmarked), the melting point was 260.5 to 261 °C. Work on `CC(C)c1ccc(NC(=O)CC2CSC(=NC3C4CC5CC(C4)CC3C5)N2C)cc1.Cl` (centres unmarked) yielded a melting point of 245 °C. In the case of `Cl.O=C(CC1CSC(=NC2CCCCC2)N1Cc1ccccc1)Nc1ccc(Oc2ccccc2)cc1` (centres unmarked), the melting point is reported as 209.5 °C. `CN1C(=NC2CC2)SCC1CC(=O)Nc1ccccc1.Cl` (centres unmarked) showed a melting point of 240.5 to 241 °C. With `Br.CN1C(=NC2CCCCCC2)SCC1C(=O)Nc1ccc(Oc2ccccc2)cc1` (centres unmarked) the melting point was 149.5 °C. `CCCCN1C(=NC23CC4CC(CC(C4)C2)C3)SCC1CC(=O)Nc1cc(CF)cc(CF)c1.Cl` (centres unmarked) gave a melting point of 252 °C. `CN1C(=NC2CC2)SCC1CC(=O)Nc1ccc(F)cc1F.Cl` (centres unmarked) showed a melting point of 245 to 246 °C. `CN1C(=NC2CCCCCC2)SCC1C(=O)Nc1cc([N+](=O)[O-])ccc1F` (centres unmarked) [KHG24661, (2-cycloheptylimino-3-methyl-1,3-thiazolidine-4-yl)-N-(2-fluoro-5-nitrophenyl)-carboxamide] showed a melting point of 151.1 °C. Work on `Cc1ccc(NC(=O)CC2CSC(=NC3CC3)N2C)c(F)c1.Cl` (centres unmarked) yielded a melting point of 199.5 to 200.5 °C. Work on `CC1SC(=NC2CCCC2)N(C)C1CC(=O)Nc1ccccc1.Cl` (centres unmarked) yielded a melting point of 186 to 188 °C. For `Br.Cc1ccc(NC(=O)C2CSC(=NC3CCCCCC3)N2C)cc1` (centres unmarked), the melting point was 278.9 °C. Molecule `CN1C(=NC2CC2)SCC1CC(=O)Nc1ccc(Cl)cc1F.Cl` (centres unmarked) has a melting point of 237 to 237.5 °C. With `CC1SC(=NC2CCCCC2)N(C)C1CC(=O)Nc1ccccc1.Cl` (centres unmarked) the melting point was 231 to 234 °C. With `CC(C)c1ccc(NC(=O)CC2CSC(=NC3CCCCC3)N2C2CCCCC2)cc1.Cl` (centres unmarked) the melting point was 199.7 °C. `COc1ccc(NC(=O)CC2C(C)SC(=NC3CCCCC3)N2C)cc1` (centres unmarked) [KHG24481, (2-cyclohexylimino-3,5-dimethyl-1,3-thiazolidine-4-yl)-N-(4-methoxyphenyl)-acetamide] gave a melting point of 258 to 260 °C. For `Br.CC(C)c1ccc(NC(=O)C2CSC(=NC3CCCCCC3)N2C)cc1` (centres unmarked), the melting point was 282.2 °C. For `CN1C(=NC2CCCCCC2)SCC1C(=O)Nc1ccccc1` (centres unmarked) [KHG24622, (2-cycloheptylimino-3-methyl-1,3-thiazolidine-4-yl)-N-phenyl-carboxamide], the melting point was 208 °C. In the case of `Cc1ccc(NC(=O)CC2CSC(=NC3CCCC3)N2C)c(F)c1.Cl` (centres unmarked), the melting point is reported as 189 to 190 °C. With `CN1C(=NC2CCCCCC2)SCC1C(=O)Nc1ccccc1Cl` (centres unmarked) [KHG24624, (2-cycloheptylimino-3-methyl-1,3-thiazolidine-4-yl)-N-(2-chlorophenyl)-carboxamide] the melting point was 198.4 °C. Molecule `CC(C)c1ccc(NC(=O)CC2CSC(=NC3CC3)N2C)cc1.Cl` (centres unmarked) has a melting point of 238 to 238.5 °C. Work on `CN1C(=NC2CC2)SCC1CC(=O)NCc1ccc(Cl)cc1.Cl` (centres unmarked) yielded a melting point of 225.5 to 227 °C. For `CCCCc1ccc(NC(=O)CC2CSC(=NC34CC5CC(CC(C5)C3)C4)N2C(C)C)cc1.Cl` (centres unmarked), the melting point was 178 °C. Molecule `CN1C(=NC2CCCCCC2)SCC1C(=O)Nc1ccc(F)cc1.Cl` (centres unmarked) has a melting point of 265.3 °C. In the case of `CN1C(=NC2CCCCC2)SCC1CC(=O)Nc1ccc2c(c1)OCO2.Cl` (centres unmarked) (hydrate or solvate) [KHG24086, (2-cyclohexylimino-3-methyl-1,3-thiazolidine-4-yl)-N-(3,4-methylenedioxyphenyl)-acetamide hydrochloride], the melting point is reported as 146 to 147 °C. Work on `Br.CN1C(=NC2CCCCCC2)SCC1C(=O)Nc1cc(Cl)cc(Cl)c1` (centres unmarked) yielded a melting point of 275.2 °C. For `CN1C(=NC2CC2)SCC1CC(=O)Nc1ccc(Cl)cc1.Cl` (centres unmarked), the melting point was 241.5 to 242.5 °C. `CN1C(=NC2CCCCCC2)SCC1C(=O)Nc1cc(Cl)ccc1F` (centres unmarked) [KHG24686, (2-cycloheptylimino-3-methyl-1,3-thiazolidine-4-yl)-N-(5-chloro-2-fluorophenyl)-carboxamide] showed a melting point of 241.2 °C. With `CN1C(=NC2CC2)SCC1CC(=O)Nc1ccc(CC#N)cc1.Cl` (centres unmarked) the melting point was 245 to 245.5 °C. Molecule `CC(C)c1ccc(NC(=O)C2CSC(=NC3CCCCCC3)N2C)cc1` (centres unmarked) [KHG24680, (2-cycloheptylimino-3-methyl-1,3-thiazolidine-4-yl)-N-(4-isopropylphenyl)-carboxamide] has a melting point of 207.6 °C. `CCOc1ccc(NC(=O)CC2CSC(=NC3CC3)N2C)cc1.Cl` (centres unmarked) gave a melting point of 219 to 220 °C. `Br.CN1C(=NC2CCCCCC2)SCC1C(=O)Nc1cc(Cl)ccc1F` (centres unmarked) showed a melting point of 262.2 °C. In the case of `CC1SC(=NC2CCCCC2)N(C)C1CC(=O)Nc1ccc(C(C)(C)C)cc1.Cl` (centres unmarked), the melting point is reported as 255 to 257 °C. Work on `Cl.O=C(CC1CSC(=NC2CCCCC2)N1C1CCCCC1)Nc1ccc(F)cc1` (centres unmarked) yielded a melting point of 256 °C. `CN1C(=NC2CCCC2)SCC1CC(=O)Nc1ccc(F)cc1F.Cl` (centres unmarked) showed a melting point of 240 to 242.5 °C. In the case of `Br.CN1C(=NC2CCCCCC2)SCC1C(=O)Nc1ccc(C(C)(C)C)cc1` (centres unmarked), the melting point is reported as 169.9 °C. `COc1ccc(CNC(=O)CC2CSC(=NC3CCCCC3)N2C)cc1.Cl` (centres unmarked) showed a melting point of 193 to 195 °C. `COc1ccc(NC(=O)CC2CSC(=NC3CCCC3)N2C)cc1.Cl` (centres unmarked) gave a melting point of 210 to 211 °C. `CN1C(=NC2CC2)SCC1CC(=O)Nc1ccc(Br)cc1.Cl` (centres unmarked) gave a melting point of 227 to 228.5 °C.

Source: patent US7998989B2, “2-Imino-1,3-thiazoline-based compounds and T-type calcium channel inhibitors containing the same” (Korea Institute of Science and Technology, priority 2007, dated 2011)
